Test results taken from PMC5272797 (Biochemical pharmacology, 2016).

Experiments:
Type in all cases: biochemical
EGFR L861Q = EGFR L861Q (Homo sapiens, UniProt P00533, L861Q); experiment: Z'-LYTE Tyr4 peptide kinase assay, single dose […]; conditions: read-out: Mean inhibition at 10 μM (%)
EGFR (ErbB1) = EGFR (ErbB1) (Homo sapiens, UniProt P00533); experiment: Z'-LYTE Tyr4 peptide kinase assay, 10-point dose-response
EGFR T790M = EGFR T790M (Homo sapiens, UniProt P00533, T790M); experiment: Z'-LYTE Tyr4 peptide kinase assay, single dose […]; conditions: read-out: Mean inhibition at 10 μM (%)
Sequence of EGFR T790M (P00533 668-1210 T790M limits assumed): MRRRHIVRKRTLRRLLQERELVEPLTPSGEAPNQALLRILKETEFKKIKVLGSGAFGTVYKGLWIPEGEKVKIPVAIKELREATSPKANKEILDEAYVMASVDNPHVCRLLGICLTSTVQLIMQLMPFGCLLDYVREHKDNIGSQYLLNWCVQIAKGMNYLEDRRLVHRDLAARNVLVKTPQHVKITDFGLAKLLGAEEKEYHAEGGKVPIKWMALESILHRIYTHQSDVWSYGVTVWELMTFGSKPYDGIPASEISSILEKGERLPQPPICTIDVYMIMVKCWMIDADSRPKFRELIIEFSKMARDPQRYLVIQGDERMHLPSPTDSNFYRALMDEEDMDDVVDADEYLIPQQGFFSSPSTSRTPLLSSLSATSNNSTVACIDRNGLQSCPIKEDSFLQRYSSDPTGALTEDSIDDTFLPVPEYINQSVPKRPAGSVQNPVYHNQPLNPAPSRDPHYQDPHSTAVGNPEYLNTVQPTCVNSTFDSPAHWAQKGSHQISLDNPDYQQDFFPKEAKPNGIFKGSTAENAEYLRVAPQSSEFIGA

EGFR L858R = EGFR L858R (Homo sapiens, UniProt P00533, L858R); experiment: Z'-LYTE Tyr4 peptide kinase assay, single dose […]; conditions: read-out: Mean inhibition at 10 μM (%)
Sequence of EGFR L858R (P00533 668-1210 L858R limits assumed): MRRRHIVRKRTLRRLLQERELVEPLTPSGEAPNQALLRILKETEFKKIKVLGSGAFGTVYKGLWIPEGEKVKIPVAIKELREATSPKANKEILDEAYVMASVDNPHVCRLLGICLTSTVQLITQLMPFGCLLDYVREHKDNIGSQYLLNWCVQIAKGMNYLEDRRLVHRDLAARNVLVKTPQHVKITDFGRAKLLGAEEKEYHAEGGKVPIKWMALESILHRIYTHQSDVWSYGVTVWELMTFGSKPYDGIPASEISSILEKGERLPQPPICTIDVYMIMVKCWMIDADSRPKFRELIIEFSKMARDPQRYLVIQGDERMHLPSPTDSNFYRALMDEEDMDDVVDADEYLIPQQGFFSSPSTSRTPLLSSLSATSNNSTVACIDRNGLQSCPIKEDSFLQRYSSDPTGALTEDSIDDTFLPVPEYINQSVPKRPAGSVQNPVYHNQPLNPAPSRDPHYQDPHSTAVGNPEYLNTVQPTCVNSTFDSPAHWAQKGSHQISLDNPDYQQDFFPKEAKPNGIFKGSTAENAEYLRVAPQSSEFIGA

Sequence of EGFR L861Q (P00533 668-1210 L861Q limits assumed): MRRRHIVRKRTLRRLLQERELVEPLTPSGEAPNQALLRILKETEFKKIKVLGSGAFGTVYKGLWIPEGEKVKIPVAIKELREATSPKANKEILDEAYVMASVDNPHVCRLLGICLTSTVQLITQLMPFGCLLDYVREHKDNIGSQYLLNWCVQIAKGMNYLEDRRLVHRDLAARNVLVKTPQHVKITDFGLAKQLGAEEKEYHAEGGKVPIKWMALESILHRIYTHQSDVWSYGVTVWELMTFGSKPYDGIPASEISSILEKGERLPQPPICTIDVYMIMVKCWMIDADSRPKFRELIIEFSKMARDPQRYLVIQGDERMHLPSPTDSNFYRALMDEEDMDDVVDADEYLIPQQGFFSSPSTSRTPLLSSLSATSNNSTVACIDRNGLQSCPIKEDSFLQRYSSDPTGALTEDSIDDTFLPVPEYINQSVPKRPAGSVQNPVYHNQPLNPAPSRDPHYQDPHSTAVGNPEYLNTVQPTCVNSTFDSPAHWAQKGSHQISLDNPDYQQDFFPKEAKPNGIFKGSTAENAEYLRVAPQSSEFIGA
Sequence of EGFR (ErbB1) (P00533 668-1210): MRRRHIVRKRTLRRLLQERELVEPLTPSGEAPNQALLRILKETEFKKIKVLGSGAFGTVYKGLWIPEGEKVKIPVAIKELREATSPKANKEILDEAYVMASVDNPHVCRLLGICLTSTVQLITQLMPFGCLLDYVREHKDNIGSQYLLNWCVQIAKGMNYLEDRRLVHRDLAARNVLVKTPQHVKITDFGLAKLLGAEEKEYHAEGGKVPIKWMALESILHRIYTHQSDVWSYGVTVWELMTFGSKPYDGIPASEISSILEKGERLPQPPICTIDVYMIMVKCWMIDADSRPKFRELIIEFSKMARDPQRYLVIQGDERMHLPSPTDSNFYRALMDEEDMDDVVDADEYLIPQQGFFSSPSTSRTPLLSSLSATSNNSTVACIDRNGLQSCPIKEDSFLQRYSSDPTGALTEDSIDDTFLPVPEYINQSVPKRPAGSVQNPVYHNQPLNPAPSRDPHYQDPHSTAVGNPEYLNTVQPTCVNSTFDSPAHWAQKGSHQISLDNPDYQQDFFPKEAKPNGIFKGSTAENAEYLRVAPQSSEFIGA

- inhibition at 10 µM (EGFR L861Q): 93%
- IC50 (EGFR (ErbB1)): 570 nM
- inhibition at 10 µM (EGFR T790M): 93%
- inhibition at 10 µM (EGFR L858R): 98%
Compound: CCCC(=O)O[C@]1(C)CC[C@H](C(C)C)[C@@H]2[C@H]1[C@H]1C[C@](C)(O)[C@@H](O)CC[C@@](C)(OC(C)=O)[C@@H]2O1 [compound 1, Pachycladin A]
